Patent US20060148858A1, “1, 2-Azole derivatives with hypoglycemic and hypolipidemic activity” (priority 2002, published 2006)
Read-outs that look alike come from different tables or passages of the source.

How the values were obtained:
PPARδ-RXRα heterodimer = target: T1, PPARδ-RXRα heterodimer (Homo sapiens, UniProt Q03181); test: PPARδ-RXRα heterodimer ligand activity, luciferase reporter in COS-1 transformant (Test Example 4); assay type: cell-based; settings: COS-1 transformant (hPPARδ, hRXRα, reporter), 36-48 hours, concentration for 50% of the maximum fold induction
T1 construct: expressed in transfected cells; host or cells: COS-1
T1 sequence (Q03181 1-441): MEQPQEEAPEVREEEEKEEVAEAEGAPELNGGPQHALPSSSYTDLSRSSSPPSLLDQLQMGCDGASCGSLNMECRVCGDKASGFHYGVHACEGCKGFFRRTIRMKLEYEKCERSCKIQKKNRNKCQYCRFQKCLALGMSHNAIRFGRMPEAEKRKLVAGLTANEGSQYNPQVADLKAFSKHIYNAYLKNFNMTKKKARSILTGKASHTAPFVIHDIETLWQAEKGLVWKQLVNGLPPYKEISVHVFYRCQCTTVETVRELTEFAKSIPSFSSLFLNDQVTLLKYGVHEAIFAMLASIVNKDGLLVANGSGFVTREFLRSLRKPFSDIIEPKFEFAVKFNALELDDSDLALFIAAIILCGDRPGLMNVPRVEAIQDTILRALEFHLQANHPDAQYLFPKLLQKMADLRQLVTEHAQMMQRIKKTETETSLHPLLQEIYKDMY
T1 sequence (P19793 1-462 partner): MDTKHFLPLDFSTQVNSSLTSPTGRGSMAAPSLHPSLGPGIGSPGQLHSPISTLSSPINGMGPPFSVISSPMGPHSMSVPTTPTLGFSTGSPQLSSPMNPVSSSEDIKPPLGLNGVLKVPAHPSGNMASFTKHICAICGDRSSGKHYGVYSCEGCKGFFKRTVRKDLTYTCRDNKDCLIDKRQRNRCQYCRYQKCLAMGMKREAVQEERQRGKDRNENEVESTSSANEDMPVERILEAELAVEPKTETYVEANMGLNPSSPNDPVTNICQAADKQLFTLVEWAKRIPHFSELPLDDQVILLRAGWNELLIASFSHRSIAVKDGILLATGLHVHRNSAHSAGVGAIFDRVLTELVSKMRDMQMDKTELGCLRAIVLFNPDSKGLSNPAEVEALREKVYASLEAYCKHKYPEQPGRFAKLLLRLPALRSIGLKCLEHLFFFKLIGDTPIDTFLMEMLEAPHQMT
Method: The transformant obtained in Reference Example 9a was suspended in DMEM medium (produced by Life Technologies, Inc., USA) containing 0.1% fatty acid-free bovine serum albumin (BSA) (produced by Wako Pure Chemical Industries, Ltd.), and inoculate to each well of a 96-well white plate (produced by Corning Costar Corporation, USA) by 80 μl at 1×10^4 cells/well. Then the test compound (20 μl) was added and cultured at 37° C. under 5% CO2 for 36-48 hours. After removing the medium from the 96-well white plate, 40 μl of PIKKAGENE LT 7.5 (produced by Wako Pure Chemical Industries, Ltd.) diluted twice with HBSS (HANKS' BALANCED SALT SOLUTION)(produced by BIO WHITTAKER Inc., USA), was added. After stirring, the luciferase activity was determined using 1420 ARVO Multilabel Counter (produced by PerkinElmer Inc., USA).
A fold induction was calculated based on the luciferase activity of each test compound by taking the luciferase activity in the non-treatment group as 1. The values of the test compound concentration and the fold induction were analyzed using PRISM (produced by GraphPad Software Inc. USA) to calculate the EC50 values, the effective concentration of a test compound for 50% of the maximum fold induction.
COS-1 cells were inoculated to a 150 cm^2 cell culture flask (produced by Corning Costar Corporation, USA) at the density of 5×10^6 cells/50 ml, and cultured at 37° C. under 5% CO2 conditions for 24 hours. Subsequently, a DNA was introduced into the cell under the condition shown below using Lipofectamine (produced by Invitrogen, USA).
First, Lipofectamine (125 μl), PLUS Reagent (100 μl, produced by Invitrogen, USA), plasmid pMCMVneo-hPPARδ (2.5 μg) obtained in Reference Example 3a, plasmid pMCMVneo-hRXRα (2.5 μg) obtained in Reference Example 4a and reporter plasmid pGL3-4ERPP-TK neo (5 μg) obtained in Reference Example 5a, and pRL-tk (5 μg, produced by Promega, USA) were mixed with opti-MEM (5 ml, produced by Invitrogen, USA) to give a transfection mixture.
Then, the above-mentioned transfection mixture and opti-MEM (20 ml) were added to COS-1 cells washed with opti-MEM, and the cells were cultured at 37° C. under 5% CO2 conditions for 3 hours. DMEM medium (25 ml, produced by Life Technologies, Inc., USA) containing 0.1% fatty acid-free bovine serum albumin (BSA) (produced by Wako Pure Chemical Industries, Ltd.) was added to the obtained COS-1 cells, and the cells were cultured at 37° C. under 5% CO2 conditions for 18-24 hours to give a transformant.

KKAY mice = test: Hypoglycemic and hypolipidemic actions in mice (Test Example 1); assay type: in vivo; settings: Mus musculus, po, 96 h, 0.005% in powdery diet, four days, non-treated group taken as 100%
Method: Test compounds were mixed in a powdery diet (CE-2, Japan Clea) at the concentration of 0.005%, and freely given to KKAY mice (9 to 12 weeks old, 5 mice in a group), a model of obese and non-insulin dependent diabetes (type 2 diabetes), for four days. During this period, water was given freely. Blood was sampled from orbital venous plexus, and glucose and triglyceride levels in plasma separated from blood were determined enzymatically using L type Wako Glu2 (Wako Pure Chemical Industries, Ltd.) or L type Wako TG·H (Wako Pure Chemical Industries, Ltd.), respectively.
In the table, “hypoglycemic action (%)” means the rate of decrease (%) in the blood glucose level of the treated group when the blood glucose level of the non-treated group is taken as 100%. In addition, the “hypolipidemic action (%)” means the rate of decrease (%) in the blood triglyceride level of the treated group when the blood triglyceride level of the non-treated group is taken as 100%.

[1] = rate of decrease in blood glucose level, read-out: Hypoglycemic action (%)
[2] = rate of decrease in blood triglyceride level, read-out: Hypolipidemic action (%)

melting point [°C] | Molecule | EC50 (PPARδ-RXRα heterodimer) [nM] | inhibition in vivo at 0.005 % in diet (KKAY mice; [1]) [%] | inhibition in vivo at 0.005 % in diet (KKAY mice; [2]) [%]
147 to 148 | CCCC(C)c1nn(-c2ccc(C(F)(F)F)cn2)cc1CCCOc1c(C)cccc1CC(=O)O (stereo not shown) [Example 222, [3-methyl-2-(3-{3-(1-methylbutyl)-1-[5-(trifluoromethyl)-2-pyridyl]-1H-pyrazol-4-yl}propoxy)phenyl]acetic acid] |  | 36 | 54
130 to 131 | CCc1cccc(CC(=O)O)c1OCCCc1cn(-c2ccc(C(F)(F)F)cn2)nc1C(CC)CC [Example 241, [3-ethyl-2-(3-{3-(1-ethylpropyl)-1-[5-(trifluoromethyl)-2-pyridinyl]-1H-pyrazol-4-yl}propoxy)phenyl]acetic acid] |  | 38 | 27
152 | CCc1cccc(CC(=O)O)c1OCCCc1cn(-c2ccc(Br)cn2)nc1C(C)C [Example 247, (2-{3-[1-(5-bromo-2-pyridinyl)-3-isopropyl-1H-pyrazol-4-yl]propoxy}-3-ethylphenyl)acetic acid] |  | 25 | 34
127 to 128 | COc1cccc(CC(=O)O)c1OCCCc1cn(-c2cc(C(F)(F)F)ccn2)nc1C(C)C [Example 363, [2-(3-{3-isopropyl-1-[4-(trifluoromethyl)-2-pyridinyl]-1H-pyrazol-4-yl}propoxy)-3-methoxyphenyl]acetic acid] |  |  | 
95 to 97 | COc1cccc(CC(=O)O)c1OCCCc1cn(-c2cccc(C(F)(F)F)n2)nc1C(C)C [Example 365, [2-(3-{3-isopropyl-1-[6-(trifluoromethyl)-2-pyridinyl]-1H-pyrazol-4-yl}propoxy)-3-methoxyphenyl]acetic acid] |  |  | 
131 to 132 | COc1cccc(CC(=O)O)c1OCCCc1cn(-c2ccc(C(F)(F)F)nn2)nc1C(C)(C)C [Example 366, [2-(3-{3-tert-butyl-1-[6-(trifluoromethyl)pyridazin-3-yl]-1H-pyrazol-4-yl}propoxy)-3-methoxyphenyl]acetic acid] |  |  | 
112 to 113 | Cc1cccc(CC(=O)O)c1OCCCc1cn(-c2ccc(Cl)cn2)nc1C(C)(C)C [Example 371, (2-{3-[3-tert-butyl-1-(5-chloropyridin-2-yl)-1H-pyrazol-4-yl]propoxy}-3-methylphenyl)acetic acid] |  |  | 
129 to 130 | Cc1nn(-c2ccccn2)cc1COc1ccc(CCC(=O)O)cc1 [Example 372, 3-{4-[3-methyl-1-(2-pyridinyl)-1H-pyrazol-4-ylmethoxy]phenyl}propionic acid] |  |  | 
106 to 107 | COc1ccc(OC(C)(C)C(=O)O)cc1OCCCc1cn(-c2ccc(C(F)(F)F)cn2)nc1C(C)C [Example 376, 2-[3-(3-{3-isopropyl-1-[5-(trifluoromethyl)-2-pyridinyl]-1H-pyrazol-4-yl}propoxy)-4-methoxyphenoxy]-2-methylpropanoic acid] |  |  | 
115 to 116 | CCc1ccc(OC(C)(C)C(=O)O)cc1OCCCc1cn(-c2ccc(C(F)(F)F)cn2)nc1C(C)C [Example 377, 2-[4-ethyl-3-(3-{3-isopropyl-1-[5-(trifluoromethyl)-2-pyridinyl]-1H-pyrazol-4-yl}propoxy)phenoxy]-2-methylpropanoic acid] |  |  | 

Further lines, the molecule ahead of its results:

Molecule | melting point [°C] | EC50 (PPARδ-RXRα heterodimer) [nM] | inhibition in vivo at 0.005 % in diet (KKAY mice; [1]) [%] | inhibition in vivo at 0.005 % in diet (KKAY mice; [2]) [%]
CCCc1nn(-c2ccc(C(F)(F)F)cn2)cc1CCCOc1cccc(CC(=O)O)c1 [Example 44, [3-(3-{3-propyl-1-[5-(trifluoromethyl)-2-pyridyl]-1H-pyrazol-4-yl}propoxy)phenyl]acetic acid] | 106 to 107 | 3.9 |  | 
CC(C)c1nn(-c2ccc(C(F)(F)F)cn2)cc1CCCCOc1cccc(CC(=O)O)c1 [Example 51, [3-(4-{3-isopropyl-1-[5-(trifluoromethyl)-2-pyridinyl]-1H-pyrazol-4-yl}butoxy)phenyl]acetic acid] |  | 3.9 |  | 
CC(C)c1nn(-c2ccc(C(F)(F)F)cn2)cc1CCCOc1ccccc1CC(=O)O [Example 179, [2-(3-{3-isopropyl-1-[5-(trifluoromethyl)-2-pyridyl]-1H-pyrazol-4-yl}propoxy)phenyl]acetic acid] | 132 to 133 |  | 34 | 37
COc1cccc(CC(=O)O)c1OCCCCc1cn(-c2ccc(C(F)(F)F)cn2)nc1C(C)C [Example 180, [2-(4-{3-isopropyl-1-[5-(trifluoromethyl)-2-pyridyl]-1H-pyrazol-4-yl}butoxy)-3-methoxyphenyl]acetic acid] | 144 to 145 |  | 32 | 36
CC(C)c1nn(-c2ccc(C(F)(F)F)cn2)cc1CCCOc1c(F)cccc1CC(=O)O [Example 207, [3-fluoro-2-(3-{3-isopropyl-1-[5-(trifluoromethyl)-2-pyridyl]-1H-pyrazol-4-yl}propoxy)phenyl]acetic acid] | 140 to 141 |  | 49 | 72
COc1cccc(CC(=O)O)c1OCCCc1cn(-c2ncc(C(F)(F)F)cc2Cl)nc1C(C)C [Example 217, [2-(3-{1-[3-chloro-5-(trifluoromethyl)-2-pyridyl]-3-isopropyl-1H-pyrazol-4-yl}propoxy)-3-methoxyphenyl]acetic acid] | 96 to 97 |  | 34 | 18
calcium 2-[3-(3-{3-ethoxy-1-[4-(trifluoromethyl)phenyl]-1H-pyrazol-4-yl}propoxy)phenoxy]-2-methylpropanoate [Example 105] |  | 7.2 |  | 
calcium 2-[3-(4-{3-ethoxy-1-[5-(trifluoromethyl)-2-pyridinyl]-1H-pyrazol-4-yl}butoxy)phenoxy]-2-methylpropanoate [Example 102] |  | 9.1 |  | 
calcium 3-[3-ethoxy-1-(4-{3-ethoxy-1-[5-(trifluoromethyl)-2-pyridinyl]-1H-pyrazol-4-yl}butyl)-1H-pyrazol-4-yl]propanoate [Example 110] |  | 4.6 |  | 
